From article PMC5500990 (European Journal of Medicinal Chemistry, 2017)
Entries after “also recorded” stand apart in the source; their conditions may differ. Values belong to the molecule of their own block, whether it stands above or below them. *1 amine or outer side, *2 acyl side, *3 side chain or, on linkers, in order; H or OH if unused. Where a SMILES comes first, the peptide text is derived from it. Where no end group is shown, it is not given here. [ ]: non-standard residue; d: D form. X1 = C=CC(C)(C)n1cc(C[C@@H](N[*:1])C(=O)[*:2])c2ccccc21; X3 = CCCCCn1cc(C[C@@H](N[*:1])C(=O)[*:2])c2ccccc21; X4 = CCCn1cc(C[C@@H](N[*:1])C(=O)[*:2])c2ccccc21; dTrp(1-Bu) = CCCCn1cc(C[C@@H](N)C(=O)O)c2ccccc21; X2 = CCn1cc(C[C@@H](N[*:1])C(=O)[*:2])c2ccccc21; dTrp(1-Me) = Cn1cc(C[C@@H](N)C(=O)O)c2ccccc21; dNMeF = CN[C@H](Cc1ccccc1)C(=O)O

Key:
H69 cells = assay: Cell viability assay using resazurin dye, H69 cells; assay type: cell-based, human; settings: for IC50: 48 h; for fold enhancement in cytotoxicity compared to tert-Prenyl^4th-NH2 (2): H69 cell line
Method: (§1) Cell viability was evaluated by treating H69 and DMS79 cells with peptides 13–20 in the 0.1–30 μM range for 48 h, with subsequent use of the resazurin dye cell viability assay. IC50 values (Table 1) for all the peptides were derived from the dose response curves (Fig. S24). Table 1 also presents the IC50 values obtained for 1 and 2 previously. RPMI-1640 (with L-glutamine and NaHCO3) was obtained from Sigma-Aldrich. Heat Inactivated Fetal Bovine Serum (FBS) was obtained from Life Technologies. H69 and DMS79 SCLC cell lines were obtained from as previously stated. Cells were grown in 10% v/v FBS/RPMI-1640 (complete medium) and incubated at 37 °C in humidified air atmosphere of 5% CO2. Both, H69 and DMS79 cells are suspension cells and grow in aggregates. For the experimental part, cells were re-suspended in fresh complete medium. Dulbecco's PBS (without calcium chloride and magnesium chloride) and Resazurin sodium salt were obtained from Sigma-Aldrich. The peptide concentrations were calculated accurately using UV/VIS Spectrometer Perkin Elmer instrument and dilution of the stock concentration was made using 50% v/v FBS/sterile saline. Concentrations prepared were ranged from 0.6 to 0.002 mM. Cells were seeded in 96-well plates at a seeding density of 1 × 10^4 cells/190 μl/well in triplicates. Peptides were then added on the same day and incubated as the above conditions stated in Section 5.1. The amount of peptide solution added into each well was 10 μl, resulting in a final well concentration of 30 to 0.1 μM. Untreated control samples were also prepared. Samples for background fluorescence for the resazurin dye were also prepared using only complete medium. After 48 h incubation, resazurin dye (20 μl; 0.125 mg/ml in PBS) was added to each well and incubated as the above conditions stated in Section 5.1 for 5 h. Then, fluorescence readings were recorded using a Tecan Safire plate reader and % viability calculated. Assays were repeated three independent times. Graphs were generated using GraphPad Prism 7.00 software.

DMS79 cells = assay: Cell viability assay using resazurin dye, DMS79 cells; assay type: cell-based, human; settings: for IC50: 48 h; for fold reduction in potency/cytotoxicity compared to 16 / fold enhancement in cytotoxicity compared to tert-Prenyl^4th-NH2 (2): DMS79 cell line
Method: as §1

[1] = Stability in neat mouse plasma (RP-HPLC); assay type: in vitro ADME
Excerpt: When optimising for functional activity there is also a need to assess whether the desired modification will negatively affect the stability of the peptide. Characterisation of the metabolism of peptides is useful to improve their stability in vivo. The finding that a carboxylic acid group, instead of the usual amide, at the C-terminus inactivates the cytotoxicity of 16 (results of 20 - Table 1) may compromise its use in vivo as protein de-amidation reactions are widespread in plasma. Peptides 16 and 19, being the most cytotoxic peptides, were exposed to the conditions of in vitro metabolism in plasma. Peptide 20 lacking the amide group was used as a control. Peptides 16, 19 and 20 were incubated in neat mouse plasma at 37 °C for 48 h. Peptide 2, previously tested over a shorter incubation time, was included for benchmarking purpose.
Peptides were added to neat mouse plasma at a concentration of 400 μg/ml and incubated as the above conditions stated in Section 5.1. Aliquots (20 μl) were taken at 0, 3, 24 and 48 h. To the 20 μl sample, 80 μl of solution B was added and left for 5 min, prior to 1 min sonication to precipitate plasma proteins. The sample was then centrifuged for 5 min at full speed. Then 80 μl of the supernatant was added to 120 μl of solution A and transferred into a HPLC microvial to be analysed using the C8 column. A linear gradient elution was made starting with 100% of solution A and ending after 30 mins with 100% of solution B, with a flow rate of 1 ml/min and followed at λmax 220 nm. The injection volume was 36 μl. Assays were repeated three independent times. HPLC microvials at 0 and 48 h were characterised by ESIMS using the instrument stated in Section 4.1.

neat mouse plasma = settings: 37 °C, up to 48 h
[2] = S9 liver fraction (from mouse (CD-1), male, 20 mg/ml protein basis) with cofactors NADPH, UDPGA, GSH and PAPS; settings: up to 3 h
[3] = Stability in S9 liver fraction from mouse with cofactors; assay type: in vitro ADME; settings: period of 3 h
Method: Peptides 16 and 19 were further subjected to the S9 liver fraction from mouse in the presence of cofactors for a period of 3 h. This would give further insight into the stability of the peptides towards Phase I and Phase II metabolising enzymes.
Eppendorf® tubes were used for sample preparations. Chemicals, HPLC microvials, S9 liver fraction (from mouse (CD-1), male, 20 mg/ml protein basis, vial of 1.0 mL) and co-factors: beta-nictoinamide adenine dinucleotide disodium salt hydrate (NADPH), uridine 5’-diphosphoglucuronic acid trisodium salt (UDPGA), L-glutathione (GSH) and adenosine 3’-phosphate 5’-phosphosulfate lithium salt hydrate (PAPS) were obtained from Sigma-Aldrich. RP-HPLC analysis was performed using the instrument, C8 column and solutions (A and B) stated in Section 4.2.
The preparation and analysis of the samples for peptides stability in the S9 liver fraction from mouse was similar to that for the mouse plasma studies, except that addition of cofactors for enzymes activation was required and the aliquots were taken at 0, 1, 2 and 3 h. The cofactors were added to initiate the study as previously described. Briefly, stock concentrations of NADPH (40 mM), UDPGA (20 mM), GSH (2 mM) and PAPS (2 mg/ml) were prepared using Tris buffer (200 mM) (pH 7.4) containing 2 mM magnesium chloride. […]

serine protease = settings: cited from earlier work

Molecule: CCCCCn1cc(C[C@@H](NC(=O)[C@H](Cc2ccccc2)NC(=O)[C@@H](Cc2c[nH]c3ccccc23)NC(=O)[C@@H](Cc2ccccc2)NC)C(=O)N[C@@H](CC(C)C)C(N)=O)c2ccccc21 [Peptide 17] (H-[dNMeF][dW]F[X3]L-NH2)
IC50 (H69 cells): 1800 ± 100 nM
IC50 (DMS79 cells): 2370 ± 60 nM

Molecule: CCn1cc(C[C@@H](NC(=O)[C@H](Cc2ccccc2)NC(=O)[C@@H](Cc2c[nH]c3ccccc23)NC(=O)[C@@H](Cc2ccccc2)NC)C(=O)N[C@@H](CC(C)C)C(N)=O)c2ccccc21 [Peptide 14] (H-[dNMeF][dW]F[X2]L-NH2)
IC50 (H69 cells): 1830 ± 30 nM
IC50 (DMS79 cells): 1920 ± 30 nM

Molecule: CCCCn1cc(C[C@@H](NC(=O)[C@@H](Cc2ccccc2)NC)C(=O)N[C@@H](Cc2ccccc2)C(=O)N[C@H](Cc2c[nH]c3ccccc23)C(=O)N[C@@H](CC(C)C)C(N)=O)c2ccccc21 [Peptide 18] (H-[dNMeF][dTrp(1-Bu)]F[dW]L-NH2)
IC50 (H69 cells): 4050 ± 170 nM
IC50 (DMS79 cells): 3880 ± 150 nM
fold reduction in potency/cytotoxicity compared to 16 (DMS79 cells): 3–4 fold

Molecule: CN[C@H](Cc1ccccc1)C(=O)N[C@H](Cc1c[nH]c2ccccc12)C(=O)N[C@@H](Cc1ccccc1)C(=O)N[C@H](Cc1cn(C)c2ccccc12)C(=O)N[C@@H](CC(C)C)C(N)=O [Peptide 13] (H-[dNMeF][dW]F[dTrp(1-Me)]L-NH2)
IC50 (H69 cells): 3980 ± 220 nM
times less active than 2 (H69 cells; H69): ~1.4 times
IC50 (DMS79 cells): 4030 ± 310 nM

Molecule: CCCn1cc(C[C@@H](NC(=O)[C@H](Cc2ccccc2)NC(=O)[C@@H](Cc2c[nH]c3ccccc23)NC(=O)[C@@H](Cc2ccccc2)NC)C(=O)N[C@@H](CC(C)C)C(N)=O)c2ccccc21 [Peptide 15] (H-[dNMeF][dW]F[X4]L-NH2)
IC50 (H69 cells): 1570 ± 100 nM
IC50 (DMS79 cells): 1910 ± 30 nM

Molecule: [dR]PKP[dF]Q[dW]F[dW]LL-NH2
cleaved bond (serine protease): Leu-NH2, major

More lines, main results first:

% (± SE) of parent peptide to degradation product(s) in plasma studies ([1]; 37 °C, 0 hr, n = 3): 100%
% (± SE) of parent peptide to degradation product(s) in plasma studies ([1]; 37 °C, 3 hrs, n = 3): 100%
% (± SE) of parent peptide to degradation product(s) in plasma studies ([1]; 37 °C, 24 hrs, n = 3): 100%
% (± SE) of parent peptide to degradation product(s) in plasma studies ([1]; 37 °C, 48 hrs, n = 3): 100%
Molecule: CCCCn1cc(C[C@@H](NC(=O)[C@H](Cc2ccccc2)NC(=O)[C@@H](Cc2c[nH]c3ccccc23)NC(=O)[C@@H](Cc2ccccc2)NC)C(=O)N[C@@H](CC(C)C)C(=O)O)c2ccccc21 [Peptide 20] (H-[dNMeF][dW]F[dTrp(1-Bu)]L-OH)
IC50 (H69 cells): > 30000 nM
degradation in plasma (in words) ([1]; 37 °C, up to 48 h, RP-HPLC and MS): no sign of degradation; also recorded: complete stability in plasma
IC50 (DMS79 cells): > 30000 nM

cleaved bond (neat mouse plasma): Leu-NH2, 3 hrs
Molecule: DMePhe-DTrp-Phe-DTrp(N-tert-prenyl)-Leu-NH2 (H-[dNMeF][dW]F[X1]L-NH2; SMILES C=CC(C)(C)n1cc(C[C@@H](NC(=O)[C@H](Cc2ccccc2)NC(=O)[C@@H](Cc2c[nH]c3ccccc23)NC(=O)[C@@H](Cc2ccccc2)NC)C(=O)N[C@@H](CC(C)C)C(N)=O)c2ccccc21)

cleaved bond (neat mouse plasma): Leu-NH2, 3 hrs
Molecule: DMePhe-DTrp-Phe-DTrp(N-butyl)-Leu-NH2 (H-[dNMeF][dW]F[dTrp(1-Bu)]L-NH2; SMILES CCCCn1cc(C[C@@H](NC(=O)[C@H](Cc2ccccc2)NC(=O)[C@@H](Cc2c[nH]c3ccccc23)NC(=O)[C@@H](Cc2ccccc2)NC)C(=O)N[C@@H](CC(C)C)C(N)=O)c2ccccc21)
not cleaved [2]: completely stable in S9 liver fraction (3 h)

% (± SE) of parent peptide to degradation product(s) in plasma studies ([1]; 37 °C, 0 hr, n = 3): 100%
% (± SE) of parent peptide to degradation product(s) in plasma studies ([1]; 37 °C, 3 hrs, n = 3): 94.30 ± 0.20%
% (± SE) of parent peptide to degradation product(s) in plasma studies ([1]; 37 °C, 24 hrs, n = 3): > 80%
% (± SE) of parent peptide to degradation product(s) in plasma studies ([1]; 37 °C, 24 hrs, n = 3, 1440 min): 80.30 ± 0.32%
% (± SE) of parent peptide to degradation product(s) in plasma studies ([1]; 37 °C, 48 hrs, n = 3): 68.47 ± 0.23%
stability in S9 liver fraction (in words) [3]: completely stable
Molecule: CCCCn1cc(C[C@@H](NC(=O)[C@H](Cc2ccccc2)NC(=O)[C@@H](Cc2c[nH]c3ccccc23)NC(=O)[C@@H](Cc2ccccc2)NC)C(=O)N[C@@H](CC(C)C)C(N)=O)c2ccccc21 [Peptide 16, DMePhe-DTrp-Phe-DTrp(N-butyl)-Leu-NH2] (H-[dNMeF][dW]F[dTrp(1-Bu)]L-NH2)
IC50 (H69 cells): 1010 ± 20 nM
fold enhancement in cytotoxicity compared to tert-Prenyl^4th-NH2 (2) (H69 cells): ~3 fold
IC50 (DMS79 cells): 1430 ± 140 nM
fold enhancement in cytotoxicity compared to tert-Prenyl^4th-NH2 (2) (DMS79 cells): ~3 fold

% (± SE) of parent peptide to degradation product(s) in plasma studies ([1]; 37 °C, 0 hr, n = 3): 100%
% (± SE) of parent peptide to degradation product(s) in plasma studies ([1]; 37 °C, 24 hrs, n = 3, listed as tert-Prenyl^4th-NH2): ~58%
metabolised at 24 h, 400 μg/ml ([1]; after 24 h exposure, read-out: degraded in plasma): ~42%
Molecule: C=CC(C)(C)n1cc(C[C@@H](NC(=O)[C@H](Cc2ccccc2)NC(=O)[C@@H](Cc2c[nH]c3ccccc23)NC(=O)[C@@H](Cc2ccccc2)NC)C(=O)N[C@@H](CC(C)C)C(N)=O)c2ccccc21 [Peptide 2, DMePhe-DTrp-Phe-DTrp(N-tert-prenyl)-Leu-NH2] (H-[dNMeF][dW]F[X1]L-NH2)

% (± SE) of parent peptide to degradation product(s) in plasma studies ([1]; 37 °C, 0 hr, n = 3): 100%
% (± SE) of parent peptide to degradation product(s) in plasma studies ([1]; 37 °C, 3 hrs, n = 3): 98.67 ± 0.69%
% (± SE) of parent peptide to degradation product(s) in plasma studies ([1]; 37 °C, 24 hrs, n = 3): > 80%
% (± SE) of parent peptide to degradation product(s) in plasma studies ([1]; 37 °C, 24 hrs, n = 3, 1440 min): 89.73 ± 0.68%
% (± SE) of parent peptide to degradation product(s) in plasma studies ([1]; 37 °C, 48 hrs, n = 3): 81%
% (± SE) of parent peptide to degradation product(s) in plasma studies ([1]; 37 °C, 48 hrs, n = 3, 2880 min): 81.00 ± 2.25%
stability in S9 liver fraction (in words) [3]: completely stable
Molecule: CCCCn1cc(C[C@@H](NC(=O)[C@H](Cc2ccccc2)NC(=O)[C@@H](Cc2cn(CCCC)c3ccccc23)NC(=O)[C@@H](Cc2ccccc2)NC)C(=O)N[C@@H](CC(C)C)C(N)=O)c2ccccc21 [Peptide 19] (H-[dNMeF][dTrp(1-Bu)]F[dTrp(1-Bu)]L-NH2)
IC50 (H69 cells): 630 ± 50 nM
fold enhancement in cytotoxicity compared to tert-Prenyl^4th-NH2 (2) (H69 cells): ~4.5 fold
IC50 (DMS79 cells): 2310 ± 120 nM
fold enhancement in cytotoxicity compared to tert-Prenyl^4th-NH2 (2) (DMS79 cells): ~2 fold
fold reduction in potency/cytotoxicity compared to 16 (DMS79 cells): ~1.6 fold
